Assay results reported in patent US20220401514A1, “ANTIMICROBIAL, BACTERIOPHAGE-DERIVED POLYPEPTIDES AND THEIR USE AGAINST GRAM-NEGATIVE AND ACID-FAST BACTERIA” (CONTRAFECT CORPORATION, priority 2019, published 2022).

Key:
[1] = system: Acinetobacter baumannii strain 30; experiment: Checkerboard assay (FICI) with antibiotics, A. baumannii; type: cell-based; details: checkerboard
Method: (§1) Checkerboard assays. […] Checkerboards were constructed by first preparing columns of a 96-well polypropylene microtiter plate, in which each well had the same amount of antibiotic diluted 2-fold along the horizontal axis. […] Summation fractional inhibitory concentration index (FICIs) were calculated for each drug and the minimum FICI was used to determine synergy. FICIs were calculated as follows: FICI=FIC A+FIC B, where FIC A is the MIC of each antibiotic in the combination/MIC of the each antibiotic alone, and FIC B is the MIC of each Chp peptide in the combination/MIC of each Chp peptide alone. The combination is considered synergistic when the FICI is ≤0.5, strongly additive when the FICI is >0.5 to <1, additive with the FICI is 1-<2, and antagonistic when the FICI is ≥2.
The results are shown below in Tables 22-27.

[2] = system: P. aeruginosa strain CFS-1292; experiment: Checkerboard assay (FICI) with antibiotics, P. aeruginosa; type: cell-based, Pseudomonas aeruginosa; details: for Antibiotic FIC: P. aeruginosa CFS-1292; for Antibiotic MIC in checkerboard: P. aeruginosa CFS-1292, CAA + […] human serum
Method: Any known method to assess MIC may be used.
Checkerboards are constructed by first preparing columns of e.g., a 96-well polypropylene microtiter plate, wherein each well has the same amount of antibiotic diluted 2-fold along the horizontal axis. […] Bacteria are added to the drug combinations at concentrations of 1×10^5 […] in CAA, for example, with or without human serum or pulmonary surfactant. […] Summation fractional inhibitory concentrations (ΣFICs) are calculated for each drug and the minimum ΣFIC value (ΣFICmin) is used to determine the effect of the Chp peptide/antibiotic combination.
as §1
In the checkerboard assay, fractional inhibitory concentration index (FICI) values are calculated.

[3] = system: Klebsiella pneumoniae strain 1139; experiment: Checkerboard assay (FICI) with antibiotics, K. pneumoniae; type: cell-based
Method: as §1

[4] = system: carbapenem-resistant P. aeruginosa clinical isolate CFS-1292; experiment: MIC by modified CLSI broth microdilution against P. aeruginosa CFS-1292 (CAA, CAA + human serum); type: cell-based, Pseudomonas aeruginosa; details: for MIC (μg/mL) against CFS-1292 in 100% CAA (1st run/2nd run): 1st run or single value
M. smegmatis = experiment: 45 hr MIC against M. smegmatis (NTM), Mueller Hinton broth; type: cell-based, Mycobacterium smegmatis; details: M. smegmatis MC^2 155, Run #1
[5] = checkerboard, in combination with Chp4-M1
[6] = checkerboard, in combination with Chp6-M1
[7] = checkerboard, in combination with Chp10-M1
[8] = checkerboard, in combination with Unp2-M1

Molecule | Antibiotic FIC ([1]; in combination with Chp2) | Antibiotic FIC ([1]; in combination with Chp2-M1) | Antibiotic FIC ([1]; in combination with Chp4-M1) | Antibiotic FIC ([1]; in combination with Chp6-M1) | Antibiotic FIC ([1]; in combination with Chp10-M1) | Antibiotic FIC ([1]; in combination with Unp2-M1) | Antibiotic FIC ([2]; combined with Chp2-M1) | Antibiotic FIC ([2]; combined with Chp2) | Antibiotic FIC ([2]; combined with Chp4-M1) | Antibiotic FIC ([2]; combined with Chp6-M1) | Antibiotic FIC ([2]; combined with Chp10-M1) | Antibiotic FIC ([2]; combined with Unp2-M1) | Antibiotic FIC [3, 5] | Antibiotic MIC [3, 5] | Antibiotic MIC ([1]; in combination with Chp2) | Antibiotic MIC ([1]; in combination with Chp2-M1) | Antibiotic MIC ([1]; in combination with Chp4-M1) | Antibiotic MIC ([1]; in combination with Chp6-M1) | Antibiotic MIC ([1]; in combination with Chp10-M1) | Antibiotic MIC ([1]; in combination with Unp2-M1) | also measured
NCC[C@H](O)C(=O)N[C@@H]1C[C@H](N)[C@@H](O[C@H]2O[C@H](CN)[C@@H](O)[C@H](O)[C@H]2O)[C@H](O)[C@H]1O[C@H]1O[C@H](CO)[C@@H](O)[C@H](N)[C@H]1O [Amikacin] | 0.25 | 0.5 | 0.5 | 0.5 | 0.5 | 0.5 | 0.25 | 0.25 | 0.0625 | 0.25 | 0.125 | 0.25 |  |  |  |  |  |  |  |  | Antibiotic MIC in checkerboard ([2]; combined with Chp2-M1): 0.5 µg/mL; Antibiotic MIC in checkerboard ([2]; combined with Chp2): 0.5 µg/mL; Antibiotic MIC in checkerboard ([2]; combined with Chp6-M1): 0.5 µg/mL; Antibiotic MIC in checkerboard ([2]; combined with Chp10-M1): 0.25 µg/mL; Antibiotic MIC in checkerboard ([2]; combined with Unp2-M1): 0.5 µg/mL
C[C@H]1[C@H](NC(=O)/C(=N\OC(C)(C)C(=O)O)c2csc(N)n2)C(=O)N1S(=O)(=O)O [Aztreonam] | 0.25 | 0.25 | 0.25 | 0.25 | 0.25 | 0.25 | 0.5 | 0.25 | 0.25 | 0.25 | 0.25 |  | 0.5 | 0.007812 µg/mL | 8 µg/mL | 8 µg/mL | 16 µg/mL | 8 µg/mL | 8 µg/mL | 16 µg/mL | Antibiotic FIC [3, 6]: 0.25; Antibiotic MIC [3, 6]: 0.007812 µg/mL; Antibiotic FIC [3, 7]: 0.25; Antibiotic MIC [3, 7]: 0.007812 µg/mL; Antibiotic FIC [3, 8]: 0.007812; Antibiotic MIC [3, 8]: 0.007812 µg/mL; Antibiotic FIC ([3]; combined with Chp2): 0.5; Antibiotic MIC in checkerboard ([3]; combined with Chp2): 0.007812 µg/mL; Antibiotic FIC ([3]; combined with Chp2-M1): 0.5; Antibiotic MIC in checkerboard ([3]; combined with Chp2-M1): 0.007812 µg/mL
MKKRTKALLPYAVFIILSFQLTLLTALFMYYHYTF [Lvp2] |  |  |  |  |  |  |  |  |  |  |  |  |  |  |  |  |  |  |  |  | MIC (μg/mL) against CFS-1292 in 100% CAA (1st run/2nd run) [4]: 32 µg/mL; MIC (μg/mL) against CFS-1292 in CAA + […] human serum [4]: 8 µg/mL
CC[C@H]1OC(=O)[C@H](C)[C@@H](O[C@H]2C[C@@](C)(OC)[C@@H](O)[C@H](C)O2)[C@H](C)[C@@H](O[C@@H]2O[C@H](C)C[C@H](N(C)C)[C@H]2O)[C@](C)(O)C[C@@H](C)CN(C)[C@H](C)[C@@H](O)[C@]1(C)O [Azithromycin] | 0.5 | 0.25 | 0.25 | 0.25 | 0.5 | 0.5 |  | 0.25 | 0.25 | 0.25 |  |  | 0.25 | 1 µg/mL | 0.5 µg/mL | 0.5 µg/mL | 0.5 µg/mL | 0.5 µg/mL | 0.5 µg/mL | 0.5 µg/mL | Antibiotic FIC [3, 6]: 0.5; Antibiotic MIC [3, 6]: 1 µg/mL; Antibiotic MIC [3, 7]: 1 µg/mL; Antibiotic MIC [3, 8]: 1 µg/mL; Antibiotic MIC in checkerboard ([3]; combined with Chp2): 1 µg/mL; Antibiotic FIC ([3]; combined with Chp2-M1): 0.25; Antibiotic MIC in checkerboard ([3]; combined with Chp2-M1): 1 µg/mL
C[C@H]1COc2c(N3CCN(C)CC3)c(F)cc3c(=O)c(C(=O)O)cn1c23 [Levofloxacin] | 0.25 | 0.25 | 0.25 | 0.25 | 0.25 | 0.25 | 0.25 | 0.25 | 0.5 | 0.25 | 0.25 | 0.25 | 0.25 | 0.007812 µg/mL |  |  |  |  |  |  | Antibiotic FIC [3, 6]: 0.25; Antibiotic MIC [3, 6]: 0.007812 µg/mL; Antibiotic FIC [3, 7]: 0.125; Antibiotic MIC [3, 7]: 0.007812 µg/mL; Antibiotic FIC [3, 8]: 0.01562; Antibiotic MIC [3, 8]: 0.01562 µg/mL; Antibiotic FIC ([3]; combined with Chp2): 0.25; Antibiotic MIC in checkerboard ([3]; combined with Chp2): 0.007812 µg/mL; Antibiotic FIC ([3]; combined with Chp2-M1): 0.25; Antibiotic MIC in checkerboard ([3]; combined with Chp2-M1): 0.007812 µg/mL
MRKKMHKSLDKRVFNRTAKKSKKINVNPVVYRGGIRL [CDL907] |  |  |  |  |  |  |  |  |  |  |  |  |  |  |  |  |  |  |  |  | 45 hr MIC (M. smegmatis): >128 µg/mL; MIC (μg/mL) against CFS-1292 in 100% CAA (1st run/2nd run) [4]: 8 µg/mL; MIC (μg/mL) against CFS-1292 in CAA + […] human serum [4]: 0.5 µg/mL
Gentamicin | 0.25 | 0.5 | 0.5 | 0.5 | 0.01562 | 0.5 |  | 0.5 |  |  |  | 0.25 |  |  | 0.03125 µg/mL | 0.03125 µg/mL | 0.03125 µg/mL | 0.03125 µg/mL | 0.0009766 µg/mL | 0.03125 µg/mL | 
CCN1CCN(C(=O)N[C@@H](C(=O)N[C@@H]2C(=O)N3[C@@H]2SC(C)(C)[C@@H]3C(=O)O)c2ccccc2)C(=O)C1=O [Piperacillin] | 0.25 | 0.25 | 0.25 | 0.5 | 0.25 | 0.25 | 0.125 | 0.5 | 0.5 | 0.25 | 0.25 | 0.25 |  |  | 8 µg/mL | 8 µg/mL | 8 µg/mL | 16 µg/mL | 4 µg/mL | 8 µg/mL | Antibiotic MIC in checkerboard ([2]; combined with Chp2-M1): 1 µg/mL; Antibiotic MIC in checkerboard ([2]; combined with Chp2): 4 µg/mL; Antibiotic MIC in checkerboard ([2]; combined with Chp4-M1): 8 µg/mL; Antibiotic MIC in checkerboard ([2]; combined with Chp6-M1): 2 µg/mL; Antibiotic MIC in checkerboard ([2]; combined with Chp10-M1): 2 µg/mL; Antibiotic MIC in checkerboard ([2]; combined with Unp2-M1): 2 µg/mL
